Results on three molecules are retold here after patent US11118109B2, “Organic luminogens” (THE HONG KONG UNIVERSITY OF SCIENCE AND TECHNOLOGY, priority 2017, dated 2021).

By logP is commonly meant the decadic logarithm of the partition coefficient of the neutral form, usually between octanol and water.

The nature of one data set: LogP (Table 1). It is filed as physicochemical.
The subject of the next data set is HeLa cells. The data set is described as follows: Cell imaging of living HeLa cells by confocal microscopy, co-staining with MitoTracker Green FM and NucRed Live. The conditions noted are these: incubation 60 min at 37° C. It is filed as cell-based. On the procedure: For cell culturing, HeLa cells were cultured in MEM containing 10% FBS and antibiotics (100 units/mL penicillin and 100 µg/mL streptomycin) in a 5% CO2 humidity incubator at 37° C. All culture mediums supplemented with 10% heat-inactivated FBS, 100 units/mL penicillin and 100 µg/mL streptomycin. Before experiment, the cells were precultured until confluence was reached.
For cell imaging, HeLa cells were grown overnight on a 35 mm petri dish with a cover slip at 37° C. After the removal of the medium, the adherent cells were washed twice with 1× phosphate buffered saline (PBS) buffer. 4MOTPO were then added to the chamber. After incubation for 1 h, then washed and incubated with MitoTracker® Green FM and NucRed® Live for 10 min, followed by further washing three times with 1×PBS buffer. The cells were imaged on Zeiss laser scanning confocal microscope and analyzed using ZEN 2009 software.
4MOTPO was tested in living HeLa cells to test the efficacy of the compound as a biosensor for bioimaging. Cells were incubated with 4MOTPO for 60 min at 37° C. and then washed and incubated with MitoTracker® Green FM and NucRed® Live for 10 min, followed by further washing.

Regarding `COc1ccc(-[n+]2c(-c3ccccc3)oc(-c3ccccc3)c2-c2ccccc2)cc1` [1MOTPO], the logP in “LogP (Table 1)” amounted to 1.02.

In the case of `COc1ccc(-c2oc(-c3ccccc3)[n+](-c3ccc(OC)cc3)c2-c2ccc(OC)cc2)cc1` [3MOTPO], the logP in the data set “LogP (Table 1)” came out at 1.29.

Consider `COc1ccc(-c2oc(-c3ccc(OC)cc3)[n+](-c3ccc(OC)cc3)c2-c2ccc(OC)cc2)cc1` [4MOTPO], for which the logP in the data set “LogP (Table 1)” is 1.35. Further, the “subcellular localisation versus MitoTracker Green FM and NucRed Live” value in the data set with HeLa cells (co-staining 10 min) is on record as “can accumulate in mitochondria”. The “fluorescence observed in cells (intracellular distribution)” value in the data set on HeLa cells (confocal microscopy) is on record as “intense blue fluorescence was observed in the cellular cytoplasms”.
